Reference: PubChem BioAssay (NCI)
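Grown in 96-well plates, cells were treated for 48 hours with each compound at five concentrations. Insufficient inhibition: endpoint recorded as highest concentration tested. TGI marks complete inhibition of growth.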 Where a SMILES comes first, the peptide text is derived from it. The star is where a group is joined. Cbz = O=C(OCc1ccccc1)*

Experiments:
Assay in all cases: NCI anticancer screen, dose series, 48 h
CCRF-CEM leukemia = system: CCRF-CEM leukemia
HCT-116 colon = system: HCT-116 colon
M14 melanoma = system: M14 melanoma
MCF7 breast = system: MCF7 breast
NCI-H23 lung = system: NCI-H23 lung
NCI-H522 lung = system: NCI-H522 lung
OVCAR-3 ovarian = system: OVCAR-3 ovarian
OVCAR-8 ovarian = system: OVCAR-8 ovarian
PC-3 prostate = system: PC-3 prostate
SF-539 CNS = system: SF-539 CNS
TK-10 renal = system: TK-10 renal

SMILES	TGI (CCRF-CEM leukemia)	TGI (HCT-116 colon)	TGI (M14 melanoma)	TGI (MCF7 breast)	TGI (NCI-H23 lung)	TGI (NCI-H522 lung)	TGI (OVCAR-3 ovarian)	TGI (OVCAR-8 ovarian)	TGI (PC-3 prostate)	TGI (SF-539 CNS)	TGI (TK-10 renal)
CC(=O)c1c(N=[N+]=[N-])c2cccc3c2n(c1=O)CCC3	51.8 µM	33.5 µM	36.3 µM	62.5 µM	45.6 µM	28.1 µM	18.9 µM	16.1 µM	38.6 µM	> 100 µM	59 µM
CCCCC1Cc2cc(O)ccc2-c2nc3cc(O)ccc3n21 (stereo not drawn) (tested in a mixture with another compound)	51.8 µM	27 µM	28.6 µM	37.5 µM	72.5 µM	25 µM	77.7 µM	68.8 µM	53.3 µM	28.5 µM	43.3 µM
O=c1[nH]c2nc3ccccc3c(=O)n2/c1=C/c1cccs1	> 100 µM	> 100 µM	> 100 µM	> 100 µM	> 100 µM	> 100 µM	> 100 µM	> 100 µM	> 100 µM	> 100 µM	> 100 µM
Cc1ccnc2c1C(=O)C1=C(OC(C)(C)CC1O)C2=O (stereo not drawn)	44.5 µM	9.98 µM	9.97 µM	7.94 µM	4.82 µM	11.1 µM	7.18 µM	11.8 µM	13 µM	10.4 µM	24.4 µM
N#Cc1cc2c(cc1Cl)Sc1nnc(Nc3ccccc3)n1S2(=O)=O	> 24 µM	4 µM	4.78 µM	> 40.4 µM	3.26 µM	4.33 µM	3.82 µM	4.41 µM	3.89 µM	4.41 µM	13.3 µM
COC(=O)N[C@H](C(=O)NC(OCc1ccccc1)C1COC(C)(C)O1)C(C)O[Si](C)(C)C(C)(C)C (stereo partly drawn)	> 100 µM	> 100 µM	> 100 µM	> 100 µM	> 100 µM	–	–	> 100 µM	> 100 µM	–	> 100 µM
CCCC(=O)[O-].CCCC(=O)[O-].NCCN.NCCN.[Co+3].[O-][Cl+3]([O-])([O-])[O-]	> 100 µM	> 100 µM	> 100 µM	–	> 100 µM	> 100 µM	> 100 µM	> 100 µM	–	> 100 µM	> 100 µM
N/C(=N\S(=O)(=O)c1ccc(-c2ncccc2C(F)(F)F)s1)Nc1ccc(Cl)cc1	–	32.5 µM	31.2 µM	30 µM	27.5 µM	23.6 µM	38.7 µM	29.7 µM	25.8 µM	> 100 µM	26.2 µM
O=c1[nH]nc(Cc2ccc(Cl)cc2)n1/N=C/c1cccs1	> 100 µM	> 100 µM	> 100 µM	> 100 µM	> 100 µM	68.8 µM	> 100 µM	> 100 µM	> 100 µM	> 100 µM	–
COC(=O)[C@@H](NC(=O)N(Cc1ccccc1)C[C@H](CC(C)C)NC(=O)[C@@H](NC(=O)OC(C)(C)C)C(C)C)C(C)C	–	> 100 µM	> 100 µM	–	> 100 µM	> 100 µM	> 100 µM	> 100 µM	> 100 µM	> 100 µM	> 100 µM
Cc1cc(C)nc(NC(P(=O)(O)O)P(=O)(O)O)n1	–	> 100 µM	> 100 µM	> 100 µM	> 100 µM	> 100 µM	> 100 µM	> 100 µM	> 100 µM	> 100 µM	> 100 µM
COc1cc2nc(-c3cccs3)nc(Cl)c2cc1OC	–	> 100 µM	> 100 µM	76 µM	> 100 µM	> 100 µM	> 100 µM	> 100 µM	> 100 µM	> 100 µM	> 100 µM
O=C1CCSCCC(=O)Nc2ccccc2N1	> 100 µM	> 100 µM	> 100 µM	–	> 100 µM	> 100 µM	> 100 µM	> 100 µM	> 100 µM	> 100 µM	> 100 µM
CCOC(=O)CCC(NC(=O)OCc1ccccc1)C(=O)NC(CCC(=O)OCC)C(=O)OCC (stereo not drawn) (Cbz-Glu(OEt)-Glu(OEt)-OEt; configuration not given here)	> 100 µM	> 100 µM	> 100 µM	> 100 µM	> 100 µM	> 100 µM	> 100 µM	> 100 µM	> 100 µM	> 100 µM	–
COc1cc(Nc2nc3cc(C(F)(F)F)ccc3nc2C(=O)O)cc(OC)c1OC	90.8 µM	> 100 µM	> 100 µM	> 100 µM	> 100 µM	> 100 µM	> 100 µM	> 100 µM	–	> 100 µM	> 100 µM
C/C=C\C(CC(=O)NCC(=O)c1c[nH]c2ccccc12)CC(=O)OC (stereo not drawn)	96.5 µM	> 100 µM	> 100 µM	> 100 µM	> 100 µM	> 100 µM	> 100 µM	> 100 µM	> 100 µM	–	> 100 µM
CS(=O)(=O)N1CC(CCl)c2ccc(O)cc21 (stereo not drawn)	23.8 µM	11.1 µM	–	> 100 µM	7.6 µM	5.8 µM	9.3 µM	7.33 µM	5.88 µM	5.05 µM	6.98 µM
O=C1OCC2OC(=O)c3cc(O)c(O)c(O)c3-c3c(O)c(O)c(O)c4c3C(=O)OC(C2OC(=O)c2cc(O)c(O)c(O)c2-c2c1cc(O)c(O)c2O)C1OC(=O)C2C4=C(O)C(=O)C23Oc2cc(O)c4c(c2[C@H]13)O[C@H](c1ccc(O)c(O)c1)[C@@H](O)C4 (stereo partly drawn)	> 100 µM	40.3 µM	29.6 µM	46.3 µM	47.3 µM	50.4 µM	83.4 µM	58.5 µM	> 100 µM	–	–
CCOC(=O)CCC1(CCC(=O)OCC)CCCCCCCCC(CCC(=O)OCC)(CCC(=O)OCC)C(=O)C1=O	–	> 100 µM	> 100 µM	> 100 µM	> 100 µM	> 100 µM	> 100 µM	> 100 µM	> 100 µM	> 100 µM	> 100 µM
CCOC(=O)C(NC(=O)c1ccccc1)(N1CCN(c2cc3c(cc2F)c(=O)c(C(=O)O)cn3C2CC2)CC1)C(F)(F)F (stereo not drawn)	14.6 µM	31.6 µM	40.7 µM	–	32.9 µM	–	48.6 µM	> 100 µM	60.2 µM	30.9 µM	–
